# Tested on: 3C proteinase (Hepatitis A virus)
# Assay: Reversible inhibitory activity against Protease at a concentration 100 uM
# Settings: Hepatovirus A
row,inhibition [%],Structure (SMILES)
1,9,COC(=O)c1nnn(CC(=O)[C@H](CCC(=O)N(C)C)NC(=O)[C@H](C)NC(=O)[C@H](C)NC(=O)[C@H](CC(C)C)NC(C)=O)c1C(=O)OC
2,14,COC(=O)c1nnn(CC(=O)[C@H](C[C@@H]2CCNC2=O)NC(=O)[C@H](C)NC(=O)[C@H](C)NC(=O)[C@H](CC(C)C)NC(C)=O)c1C(=O)OC
3,1,CC(=O)N[C@@H](CC(C)C)C(=O)N[C@@H](C)C(=O)N[C@@H](C)C(=O)N[C@@H](CCC(=O)N(C)C)C(=O)Cn1nnc(C(=O)O)c1C(=O)O

# From ChEMBL document CHEMBL1146790, “Structural variations in keto-glutamines for improved inhibition against hepatitis A virus 3C proteinase” (Bioorg Med Chem Lett, 2004)
